Source: ChEMBL document CHEMBL5647690, “Inhibition of demethylases by GSK-J1/J4” (Nature, 2014)

What was measured:
[1] = molecular target: Lysine-specific demethylase 3B (Homo sapiens, UniProt Q7LBC6); test: Inhibition of KDM3B (842 to 1761 residues)(unknown origin) by Alphalisa assay
[2] = molecular target: T1, Lysine-specific demethylase 4A (Homo sapiens, UniProt O75164); test: Inhibition of KDM4A (1 to 350 residues)(unknown origin) by Alphalisa assay
T1 sequence (O75164 whole entry): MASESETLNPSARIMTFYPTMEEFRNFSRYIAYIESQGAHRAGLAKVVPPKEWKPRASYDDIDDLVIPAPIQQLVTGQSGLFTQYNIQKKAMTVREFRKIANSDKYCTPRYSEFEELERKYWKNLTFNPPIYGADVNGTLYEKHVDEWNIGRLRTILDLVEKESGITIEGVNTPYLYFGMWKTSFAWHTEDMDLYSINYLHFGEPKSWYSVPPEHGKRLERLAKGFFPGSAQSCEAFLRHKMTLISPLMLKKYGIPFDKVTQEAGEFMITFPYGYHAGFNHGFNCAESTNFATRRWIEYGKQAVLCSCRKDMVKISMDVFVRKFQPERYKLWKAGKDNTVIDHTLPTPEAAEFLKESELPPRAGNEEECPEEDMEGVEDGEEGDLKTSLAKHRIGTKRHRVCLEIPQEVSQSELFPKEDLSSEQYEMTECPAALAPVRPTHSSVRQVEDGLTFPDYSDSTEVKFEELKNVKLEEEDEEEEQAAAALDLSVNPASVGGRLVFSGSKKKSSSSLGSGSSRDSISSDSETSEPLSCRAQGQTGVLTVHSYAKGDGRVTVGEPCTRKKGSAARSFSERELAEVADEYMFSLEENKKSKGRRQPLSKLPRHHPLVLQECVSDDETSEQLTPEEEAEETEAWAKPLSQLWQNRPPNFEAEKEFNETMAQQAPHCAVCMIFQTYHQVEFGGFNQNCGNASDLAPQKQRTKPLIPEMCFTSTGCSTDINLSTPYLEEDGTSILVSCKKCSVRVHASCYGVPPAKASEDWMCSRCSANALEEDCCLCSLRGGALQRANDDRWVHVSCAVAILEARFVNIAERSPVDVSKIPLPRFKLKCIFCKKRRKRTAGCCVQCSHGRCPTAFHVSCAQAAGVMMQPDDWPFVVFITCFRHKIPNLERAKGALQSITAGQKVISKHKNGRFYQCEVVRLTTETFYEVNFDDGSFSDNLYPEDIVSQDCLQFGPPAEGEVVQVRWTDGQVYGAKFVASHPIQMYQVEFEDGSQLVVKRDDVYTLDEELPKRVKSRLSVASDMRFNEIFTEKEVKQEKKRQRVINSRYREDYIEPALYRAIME

[3] = molecular target: T2, Lysine-specific demethylase 4C (Homo sapiens, UniProt Q9H3R0); test: Inhibition of KDM4C (1 to 349 residues)(unknown origin) by Alphalisa assay
T2 sequence (Q9H3R0 whole entry): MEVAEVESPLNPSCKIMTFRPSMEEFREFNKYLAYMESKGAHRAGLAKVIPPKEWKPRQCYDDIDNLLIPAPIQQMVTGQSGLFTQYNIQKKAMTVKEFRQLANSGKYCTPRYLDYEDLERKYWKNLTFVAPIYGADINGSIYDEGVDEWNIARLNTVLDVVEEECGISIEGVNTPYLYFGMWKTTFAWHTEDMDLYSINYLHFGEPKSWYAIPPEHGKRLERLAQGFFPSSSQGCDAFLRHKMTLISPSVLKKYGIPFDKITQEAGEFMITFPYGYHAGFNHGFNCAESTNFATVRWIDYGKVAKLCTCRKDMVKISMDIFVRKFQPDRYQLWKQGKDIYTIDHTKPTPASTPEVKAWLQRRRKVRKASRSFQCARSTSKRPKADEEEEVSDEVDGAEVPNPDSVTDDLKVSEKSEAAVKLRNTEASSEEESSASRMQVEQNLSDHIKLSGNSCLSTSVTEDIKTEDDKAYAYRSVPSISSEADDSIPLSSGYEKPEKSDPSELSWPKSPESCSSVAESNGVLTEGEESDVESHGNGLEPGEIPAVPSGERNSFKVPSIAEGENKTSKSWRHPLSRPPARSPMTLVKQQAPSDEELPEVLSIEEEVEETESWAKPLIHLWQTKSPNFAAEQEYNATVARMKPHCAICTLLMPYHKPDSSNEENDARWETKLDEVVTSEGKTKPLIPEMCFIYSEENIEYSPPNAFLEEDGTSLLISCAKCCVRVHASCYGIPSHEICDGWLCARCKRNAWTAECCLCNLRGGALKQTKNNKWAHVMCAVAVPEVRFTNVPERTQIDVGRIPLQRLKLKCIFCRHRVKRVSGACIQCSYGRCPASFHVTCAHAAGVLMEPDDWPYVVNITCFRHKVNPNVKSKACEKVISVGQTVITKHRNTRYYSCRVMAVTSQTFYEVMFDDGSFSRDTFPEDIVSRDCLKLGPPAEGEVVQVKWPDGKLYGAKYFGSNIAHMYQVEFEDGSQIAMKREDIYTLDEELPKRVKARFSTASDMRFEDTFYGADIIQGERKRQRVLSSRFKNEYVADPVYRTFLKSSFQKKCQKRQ

[4] = molecular target: Lysine-specific demethylase 6A (Homo sapiens, UniProt O15550); test: Inhibition of KDM6A (919 to 1401 residues)(unknown origin) by Alphalisa assay
[5] = molecular target: Lysine-specific demethylase 5C (Homo sapiens, UniProt P41229); test: Inhibition of KDM5C (2 to 1560 residues)(unknown origin) by Alphalisa assay
[6] = molecular target: Histone lysine demethylase PHF8 (Homo sapiens, UniProt Q9UPP1); test: Inhibition of PHF8 (1 to 1024 residues)(unknown origin) by Alphalisa assay

Lysine-specific demethylase 6A, sequence (O15550 whole entry, the tested form may be a part): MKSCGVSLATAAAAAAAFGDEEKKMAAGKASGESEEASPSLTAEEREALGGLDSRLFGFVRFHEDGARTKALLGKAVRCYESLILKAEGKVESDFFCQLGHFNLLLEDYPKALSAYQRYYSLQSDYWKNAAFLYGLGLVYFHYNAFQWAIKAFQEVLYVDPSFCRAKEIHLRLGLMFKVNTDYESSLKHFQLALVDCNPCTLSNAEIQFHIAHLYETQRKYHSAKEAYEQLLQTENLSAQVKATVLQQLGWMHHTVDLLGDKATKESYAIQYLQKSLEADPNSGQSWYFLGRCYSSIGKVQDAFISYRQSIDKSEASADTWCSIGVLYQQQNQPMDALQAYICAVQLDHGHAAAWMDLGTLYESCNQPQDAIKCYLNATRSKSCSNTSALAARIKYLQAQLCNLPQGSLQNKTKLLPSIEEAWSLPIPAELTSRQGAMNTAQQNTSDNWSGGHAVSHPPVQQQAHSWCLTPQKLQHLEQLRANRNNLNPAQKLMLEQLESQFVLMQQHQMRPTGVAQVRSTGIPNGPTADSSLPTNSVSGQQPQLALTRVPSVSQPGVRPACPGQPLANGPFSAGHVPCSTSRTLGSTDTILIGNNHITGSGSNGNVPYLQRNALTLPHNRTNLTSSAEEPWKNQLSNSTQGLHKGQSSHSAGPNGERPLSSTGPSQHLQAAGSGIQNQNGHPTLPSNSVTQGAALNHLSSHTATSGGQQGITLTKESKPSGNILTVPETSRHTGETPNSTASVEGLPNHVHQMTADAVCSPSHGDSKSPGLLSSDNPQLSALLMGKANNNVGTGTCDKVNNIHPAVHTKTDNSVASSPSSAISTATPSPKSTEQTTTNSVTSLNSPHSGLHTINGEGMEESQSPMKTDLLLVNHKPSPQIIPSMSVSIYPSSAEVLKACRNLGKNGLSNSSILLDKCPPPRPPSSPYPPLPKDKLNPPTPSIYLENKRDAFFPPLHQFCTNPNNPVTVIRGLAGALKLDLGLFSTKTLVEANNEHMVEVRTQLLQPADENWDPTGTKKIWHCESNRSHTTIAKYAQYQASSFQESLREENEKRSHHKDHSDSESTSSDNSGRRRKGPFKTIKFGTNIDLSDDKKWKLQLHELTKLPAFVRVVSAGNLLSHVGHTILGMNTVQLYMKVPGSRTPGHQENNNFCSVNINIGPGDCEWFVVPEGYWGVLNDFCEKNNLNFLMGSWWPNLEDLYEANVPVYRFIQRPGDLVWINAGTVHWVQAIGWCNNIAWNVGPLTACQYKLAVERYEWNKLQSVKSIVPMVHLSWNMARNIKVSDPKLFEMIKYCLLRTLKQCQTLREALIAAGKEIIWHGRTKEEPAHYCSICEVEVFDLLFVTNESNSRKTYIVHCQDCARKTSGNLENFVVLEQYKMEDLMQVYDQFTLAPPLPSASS
Lysine-specific demethylase 3B, sequence (Q7LBC6 whole entry, the tested form may be a part): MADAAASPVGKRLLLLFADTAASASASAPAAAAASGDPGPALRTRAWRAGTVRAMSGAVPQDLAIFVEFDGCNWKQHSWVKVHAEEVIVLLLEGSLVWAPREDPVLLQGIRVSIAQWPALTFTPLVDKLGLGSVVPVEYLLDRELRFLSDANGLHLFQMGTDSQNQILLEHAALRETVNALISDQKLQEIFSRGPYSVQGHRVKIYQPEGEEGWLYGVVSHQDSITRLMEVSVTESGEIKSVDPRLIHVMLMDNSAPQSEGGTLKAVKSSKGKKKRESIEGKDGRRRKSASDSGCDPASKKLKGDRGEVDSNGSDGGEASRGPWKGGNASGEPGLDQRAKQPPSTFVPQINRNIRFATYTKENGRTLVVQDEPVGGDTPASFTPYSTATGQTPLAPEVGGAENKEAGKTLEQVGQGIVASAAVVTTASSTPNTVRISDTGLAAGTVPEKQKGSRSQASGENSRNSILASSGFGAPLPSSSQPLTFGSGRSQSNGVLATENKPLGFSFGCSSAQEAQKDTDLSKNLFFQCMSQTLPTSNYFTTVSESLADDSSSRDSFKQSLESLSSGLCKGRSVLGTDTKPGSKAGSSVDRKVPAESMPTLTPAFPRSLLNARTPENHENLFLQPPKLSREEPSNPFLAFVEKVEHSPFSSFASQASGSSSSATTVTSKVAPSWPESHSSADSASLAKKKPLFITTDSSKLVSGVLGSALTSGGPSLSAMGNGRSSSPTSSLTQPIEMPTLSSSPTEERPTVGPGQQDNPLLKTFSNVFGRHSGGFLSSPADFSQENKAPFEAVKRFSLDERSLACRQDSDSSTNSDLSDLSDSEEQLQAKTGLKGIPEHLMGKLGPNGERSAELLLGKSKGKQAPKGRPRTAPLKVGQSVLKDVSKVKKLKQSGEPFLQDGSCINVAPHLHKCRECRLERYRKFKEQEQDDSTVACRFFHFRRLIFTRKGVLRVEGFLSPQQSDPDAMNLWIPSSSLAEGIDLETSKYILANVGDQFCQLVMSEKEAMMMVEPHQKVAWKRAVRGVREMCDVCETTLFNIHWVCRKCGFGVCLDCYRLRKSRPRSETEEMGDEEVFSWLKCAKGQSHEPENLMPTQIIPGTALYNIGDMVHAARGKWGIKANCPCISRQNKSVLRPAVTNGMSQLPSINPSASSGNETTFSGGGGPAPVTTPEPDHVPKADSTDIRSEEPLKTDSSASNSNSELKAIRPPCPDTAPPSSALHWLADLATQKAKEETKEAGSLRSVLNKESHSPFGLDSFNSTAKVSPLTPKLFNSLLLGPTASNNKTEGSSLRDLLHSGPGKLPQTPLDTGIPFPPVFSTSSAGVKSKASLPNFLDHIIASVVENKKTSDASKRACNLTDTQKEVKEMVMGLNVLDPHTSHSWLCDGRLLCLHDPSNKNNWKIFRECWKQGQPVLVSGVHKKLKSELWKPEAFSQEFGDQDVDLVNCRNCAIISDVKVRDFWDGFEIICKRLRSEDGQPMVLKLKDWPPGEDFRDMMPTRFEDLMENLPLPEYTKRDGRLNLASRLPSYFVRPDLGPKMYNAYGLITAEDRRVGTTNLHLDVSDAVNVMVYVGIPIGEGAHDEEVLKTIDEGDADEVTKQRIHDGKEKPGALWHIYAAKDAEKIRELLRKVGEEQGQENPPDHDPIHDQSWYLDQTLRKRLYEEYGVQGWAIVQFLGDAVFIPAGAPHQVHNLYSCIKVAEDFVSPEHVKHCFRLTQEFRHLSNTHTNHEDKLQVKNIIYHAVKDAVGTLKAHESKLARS
Lysine-specific demethylase 5C, sequence (P41229 whole entry, the tested form may be a part): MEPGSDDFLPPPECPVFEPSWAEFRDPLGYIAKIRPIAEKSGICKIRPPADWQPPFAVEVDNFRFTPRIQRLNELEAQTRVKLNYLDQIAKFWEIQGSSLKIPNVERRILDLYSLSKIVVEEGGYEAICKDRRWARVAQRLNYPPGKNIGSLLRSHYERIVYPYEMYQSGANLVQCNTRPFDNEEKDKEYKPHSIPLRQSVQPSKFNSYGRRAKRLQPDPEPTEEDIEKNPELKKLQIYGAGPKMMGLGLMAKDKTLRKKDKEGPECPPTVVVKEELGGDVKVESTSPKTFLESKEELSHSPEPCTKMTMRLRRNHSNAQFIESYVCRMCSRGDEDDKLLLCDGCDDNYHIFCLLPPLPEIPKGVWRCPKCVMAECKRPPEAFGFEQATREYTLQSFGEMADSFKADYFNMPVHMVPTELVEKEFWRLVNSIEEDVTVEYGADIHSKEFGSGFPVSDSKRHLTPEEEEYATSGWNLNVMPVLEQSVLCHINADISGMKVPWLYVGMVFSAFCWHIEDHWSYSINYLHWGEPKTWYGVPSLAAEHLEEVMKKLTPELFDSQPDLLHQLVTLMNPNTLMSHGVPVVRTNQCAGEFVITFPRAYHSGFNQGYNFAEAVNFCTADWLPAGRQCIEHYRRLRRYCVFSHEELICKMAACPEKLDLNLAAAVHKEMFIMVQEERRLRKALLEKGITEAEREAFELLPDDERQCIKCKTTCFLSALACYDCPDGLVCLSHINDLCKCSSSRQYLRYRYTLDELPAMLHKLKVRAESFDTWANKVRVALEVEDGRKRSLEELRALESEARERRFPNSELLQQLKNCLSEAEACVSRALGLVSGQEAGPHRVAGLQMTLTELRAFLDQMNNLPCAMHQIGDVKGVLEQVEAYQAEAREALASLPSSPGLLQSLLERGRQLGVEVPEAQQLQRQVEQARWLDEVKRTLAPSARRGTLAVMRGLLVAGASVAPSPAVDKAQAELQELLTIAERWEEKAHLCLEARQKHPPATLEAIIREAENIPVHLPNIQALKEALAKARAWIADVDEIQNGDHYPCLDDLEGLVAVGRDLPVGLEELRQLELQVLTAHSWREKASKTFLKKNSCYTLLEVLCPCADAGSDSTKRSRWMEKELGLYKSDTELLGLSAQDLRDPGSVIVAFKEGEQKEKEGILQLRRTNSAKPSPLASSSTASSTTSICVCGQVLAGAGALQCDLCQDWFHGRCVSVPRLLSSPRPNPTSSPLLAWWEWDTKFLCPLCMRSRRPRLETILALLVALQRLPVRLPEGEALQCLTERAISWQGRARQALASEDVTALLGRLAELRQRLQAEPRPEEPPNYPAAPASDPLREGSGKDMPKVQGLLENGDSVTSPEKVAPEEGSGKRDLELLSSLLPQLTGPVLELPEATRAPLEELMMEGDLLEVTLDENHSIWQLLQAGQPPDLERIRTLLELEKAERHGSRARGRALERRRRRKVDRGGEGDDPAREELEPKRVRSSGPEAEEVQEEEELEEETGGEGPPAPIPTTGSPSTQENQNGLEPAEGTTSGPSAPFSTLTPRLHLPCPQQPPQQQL

IC50 [1] | IC50 [2] | IC50 [3] | IC50 [4] | IC50 [5] | IC50 [6] | SMILES
> 75 µM | > 50 µM | 34 µM | 0.053 µM | 0.55 µM | 28 µM | O=C(O)CCNc1cc(N2CCc3ccccc3CC2)nc(-c2ccccn2)n1
6.9 µM | 7.5 µM | 5.5 µM | 6.6 µM | 15 µM | 4.2 µM | CCOC(=O)CCNc1cc(N2CCc3ccccc3CC2)nc(-c2ccccn2)n1
